Data reported in article PMC12040169 (PLOS Biology, 2025).

How the values were obtained:
[1] = in vitro; parameters: Viability of infected HeLa host cells, resazurin conversion, bulk resorufin fluorescence relative to DMSO; conditions: human, hela cells; bulk resorufin, mean of 2
[2] = tested on: T1, CTL2-GFP (C. trachomatis L2/434/Bu, GFP-expressing); assay: microbe, parasite or virus in culture; parameters: Intracellular C. trachomatis growth in HeLa cells, bulk GFP fluorescence relative to DMSO; conditions: Chlamydia trachomatis, HeLa, 28.5 h; bulk GFP, mean of 2; read-out: % of control remaining
T1 construct: L2/434/Bu, GFP-expressing
Procedure: MICs were calculated as described above.

[3] = tested on: T2, C. trachomatis L2/434/Bu expressing GFP (CTL2-GFP); assay: microbe, parasite or virus in culture; parameters: C. trachomatis total inclusion area by high-content imaging, normalised to DMSO; conditions: Chlamydia trachomatis, HeLa, 28.5 h; total inclusion area; read-out: % of control remaining
T2 construct: L2/434/Bu GFP intracellular growth in HeLa cells
From the text: We screened a library of 36,785 small molecules displaying drug-like properties and covering a wide chemical space (Fig 1A and S2A Data). In this process, we also complemented the assay described above with an imaging-based readout (Fig 1B). After measurements of bulk GFP and resorufin fluorescence, cells were fixed, stained with the DNA dye Hoechst, and imaged at a high-content imaging platform to detect chlamydial inclusions (GFP) and host cell nuclei (Hoechst). The total area and number of inclusions in individual wells and the number of nuclei then served as additional proxies for chlamydial growth and host cell viability. […] MICs were calculated as described above.

Compound	viability at 28.5 h, 1 µM [1]	viability at 28.5 h, 5 µM [1]	viability at 28.5 h, 10 µM [1]	activity at 1 µM [2]	activity at 5 µM [2]	activity at 10 µM [2]	activity at 1 µM [3]	activity at 5 µM [3]	activity at 10 µM [3]
N=C(N)Nc1nc(-c2ccccc2)c2cc(F)ccc2n1 [CBK267350]	107%	111%	105%	93.6%	64.3%	16.8%	90.4%	64.6%	12.8%
Cc1ccccc1Nc1nc(N)nc(CN2CCCC(C(F)(F)F)C2)n1 (stereo not drawn) [CBK305073]	96.6%	101%	97.7%	153%	120%	139%	144%	60.7%	97.8%
CC(=O)NC[C@H]1CN(c2ccc(C3=CC[S+]([O-])CC3)c(F)c2)C(=O)O1 (stereo partly drawn) [CBK017555]	88%	95.4%	86.3%	134%	11.9%	18.3%	85.7%	7.09%	1.05%
COc1ccc([C@@]23CC=C(N(Cc4ccccc4)C(=O)Nc4ccc(F)c(F)c4)C[C@@H]2N(C)CC3)cc1OC [CBK050179]	93.3%	95%	112%	105%	86.7%	69.8%	62.1%	80.2%	52.4%
Cc1noc(NS(=O)(=O)c2ccc(NC(=O)COc3ccc(Cl)cc3Cl)cc2)c1C [CBK262142]	95.1%	97.3%	100%	103%	26.5%	14.3%	102%	49.8%	24.6%
O=S(=O)(Nc1ncccn1)c1ccc(NC(=S)Nc2ccc3c(c2)OCO3)cc1 [CBK267046]	114%	121%	119%	54.3%	10.7%	12.9%	88.8%	21.2%	18.3%
Fc1cc(CN2CCC3(CC2)OCCc2c3[nH]c3ccc(Br)cc23)cc(F)c1F [CBK039943]	98.2%	92.1%	90.4%	121%	66.6%	46.8%	102%	32.3%	21.4%
CC(=O)NC[C@H]1CN(c2ccc(-c3nnc(C(C)O)s3)c(F)c2)C(=O)O1 (stereo partly drawn) [CBK017968]	91.4%	90.3%	90.8%	51.4%	2.06%	5.93%	46.6%	0.644%	0.166%
CC(NC(C)(C)C)C(O)COc1ccc(Cl)c2c1C1CCC2CC1 (stereo not drawn) [CBK017752C]	90.2%	95%	92.2%	125%	126%	66.4%	68%	78.7%	17.5%
CCCCc1ccc(Nc2csc(N)n2)cc1 [CBK020594]	89.3%	84.9%	76.9%	67.9%	10.8%	6.72%	58.1%	0.609%	0.496%
N=C(N)SCc1csc(-c2ccc(Br)cc2)n1 [CBK017064C]	90.5%	88.9%	91.1%	126%	97.9%	33.1%	80.7%	91.3%	25.6%
CNC(=S)N1CCN(c2nsc3ccccc23)CC1 [CBK288515]	98.8%	96.2%	101%	4.18%	3.58%	5.68%	0.93%	0.381%	0.417%
CC(C)(C)CC(C)(C)NC(=S)Nc1ccc2nc(-c3ccccn3)c(-c3ccccn3)nc2c1 [CBK265118]	110%	106%	98%	95.9%	66.8%	47.2%	82.1%	31.9%	16.8%
Cc1cc(C)c2c(N)c(C(=O)Nc3ccc(Br)cc3)sc2n1 [CBK072019]	97.9%	98.9%	106%	107%	95.1%	100%	98.4%	59.7%	91%
CC(=O)NC[C@H]1CN(c2ccc3c(c2)CCN(C(=O)Oc2ccccc2)CC3)C(=O)O1 [CBK018498]	98.7%	94.2%	97.3%	125%	13.7%	1.02%	72.8%	12.5%	3.33%
CN(C(=O)c1ccc(Cl)c(Cl)c1)[C@H]1CCC[C@H]1N1CCCC1 [CBK003411C]	112%	111%	118%	32.2%	0.223%	1.01%	52.8%	1.24%	0.29%
O=C(NCCCn1ccnc1)N1CCN(Cc2ccc(Cl)cc2)CC1 [CBK305894]	90.1%	93.5%	89.5%	143%	148%	147%	118%	87%	78.9%
CC(C)(C)c1ccc(N(C2CCNCC2)S(=O)(=O)c2cccc(C(F)(F)F)c2)cc1 [CBK165056T]	99.8%	107%	45.6%	103%	77.9%	24.3%	78%	50.5%	1%
CCc1nnc(NS(=O)(=O)c2ccc(NC(=S)Nc3ccc(F)cc3)cc2)s1 [CBK050037]	98.2%	89.3%	93.2%	72%	22.8%	13.7%	98.5%	26.5%	17.6%
COc1cc(NS(=O)(=O)c2ccc(N/C=C3/CCc4ccccc4C3=O)cc2)nc(OC)n1 [CBK263376]	101%	99.1%	78.6%	108%	26%	22.7%	83.5%	48.7%	12.5%
CN(C)c1ccc(Nc2nc(NCCO)c3ccccc3n2)cc1 [CBK268392C]	95.3%	103%	100%	130%	4.94%	6.78%	69.7%	4.24%	0.899%
CC(=O)Nc1ccc(-c2cccc(COC3CCN(C(=O)c4ccc(OC(C)C)cc4)CC3)c2)cc1 [CBK149485]	89.4%	92.4%	93.9%	107%	30.6%	6.64%	97.4%	32.5%	7.93%
O=C(NCCc1c[nH]c2ccc(Cl)cc12)c1ccc(Cl)cc1Br [CBK159755]	89%	88.9%	93.1%	100%	71.3%	19.1%	91%	79.9%	32.4%
Cc1ccc2[nH]c(-c3cccc(NC(=O)c4cccc(CN5CCCC5=O)c4)c3)nc2c1 [CBK285838]	93%	83.3%	87.6%	137%	94.9%	34.2%	125%	91.8%	48.2%
CC(C)c1ccc(/C=C/C(=O)NCc2ccc(NS(C)(=O)=O)cc2)cc1 [CBK161512]	101%	104%	94.9%	138%	96.2%	43.8%	74.8%	59.3%	20.9%
